Reference: US8394991B2, “Phenoxy substituted phenylamidine derivatives and their use as fungicides” (Bayer Cropscience AG, priority 2007, dated 2013)

Assays:
[1] = tested on: Erysiphe graminis f. sp. Hordei; assay: Erysiphe test (barley) / protective; type: in vivo; settings: Blumeria graminis, 168 h; barley plants, protective spray, 500 ppm active compound, evaluation 7 days after inoculation; read-out: efficacy
Experimental: Solvent: 49 parts by weight of N,N-dimethylformamide
Emulsifier: 1 part by weight of alkylaryl polyglycol ether
To produce a suitable preparation of active compound, 1 part by weight of N-ethyl-N-methyl-N′-[4-phenoxy-2,5-xylyl]formamidine (according to formula I-a) is mixed with the stated amounts of solvent and emulsifier, and the concentrate is diluted with water to the desired concentration.
To test for protective activity, young cereal plants are sprayed with the active compound preparation at the stated application rate. 1 day after the treatment, the plants are inoculated with spores of Erysiphe graminis f. sp. Hordei. The plants are then placed in a greenhouse at 70% relative atmospheric humidity and a temperature of 18° C.
Evaluation is carried out 7 days after the inoculation. 0% means an efficacy which corresponds to that of the control, whereas an efficacy of 100% means that no infection is observed.

4-(3-Isopropylphenoxy)-2-chloro-5-methylnitrobenzene
log P (pH2.3) (logP (acidic, pH 2.3); pH 2.3): 5.54

Cc1cc(N)c(Cl)cc1Oc1cccc(C(C)C)c1 [4-(3-Isopropylphenoxy)-2-chloro-5-methylaniline]
logP (logP (acidic, pH 2.3); pH 2.3): 4.68

CCN(C)C=Nc1cc(C)c(Oc2cccc(C(C)(CC)OC)c2)cc1C (stereo not shown) [Compound 8, N-ethyl-N′-{4-[3-(1-methoxy-1-methylpropyl)phenoxy]-2,5-dimethylphenyl}-N-methylimidoformamide]
pest or weed control at 500 ppm [1]: ≥ 70%

CCN(C)C=Nc1cc(C)c(Oc2cccc(C(C)(C)OC)c2)cc1C [Compound 37, N-ethyl-N′-{4-[3-(1-methoxy-1-methylethyl)phenoxy]-2,5-dimethylphenyl}-N-methylimidoformamide]
logP (logP (acidic, pH 2.3); pH 2.3): 2.14 | pest or weed control at 500 ppm [1]: ≥ 70%

CCN(C)C=Nc1cc(C)c(Oc2cccc(CCCO)c2)cc1C [Compound 57-1, N-ethyl-N′-{4-[3-(3-hydroxypropyl)phenoxy]-2,5-dimethylphenyl}-N-methylimidoformamide]
logP (logP (acidic, pH 2.3); pH 2.3): 1.56

Cc1cc(Oc2cccc(CCCO)c2)c(C)cc1N=CN(C)C(C)C [Compound 57-2, N′-{4-[3-(3-hydroxypropyl)phenoxy]-2,5-dimethylphenyl}-N-isopropyl-N-methylimidoformamide]
logP (logP (acidic, pH 2.3); pH 2.3): 1.67 | pest or weed control at 500 ppm [1]: ≥ 70%

CCN(C)C=Nc1cc(C)c(Oc2cccc(C(C)C)c2)cc1Cl [Compound 61-1, N′-[2-chloro-4-(3-isopropylphenoxy)-5-methylphenyl]-N-ethyl-N-methylimidoformamide]
logP (logP (acidic, pH 2.3); pH 2.3): 2.38 | pest or weed control at 500 ppm [1]: ≥ 70%

Cc1cc(N=CN(C)C(C)C)c(Cl)cc1Oc1cccc(C(C)C)c1 [Compound 61-2, N′-[2-chloro-4-(3-isopropylphenoxy)-5-methylphenyl]-N-isopropyl-N-methylimidoformamide]
logP (logP (acidic, pH 2.3); pH 2.3): 2.54 | pest or weed control at 500 ppm [1]: ≥ 70%

Cc1cc(/N=C/N2CCCCC2)c(Cl)cc1Oc1cccc(C(C)C)c1 [Compound 61-3, 2-chloro-4-(3-isopropylphenoxy)-5-methyl-N-[(1E)-piperidin-1-ylmethylene]aniline]
logP (logP (acidic, pH 2.3); pH 2.3): 2.62

Cc1cc(/N=C/N2CCCCC2C)c(Cl)cc1Oc1cccc(C(C)C)c1 (stereo not shown) [Compound 61-4, 2-chloro-4-(3-isopropylphenoxy)-5-methyl-N-[(1E)-(2-methylpiperidin-1-yl)methylene]aniline]
logP (logP (acidic, pH 2.3); pH 2.3): 2.67

CCN(C)C=Nc1cc(C)c(Oc2cccc(CC(C)(C)C)c2)cc1C [Compound 62, N′-{4-[3-(2,2-dimethylpropyl)phenoxy]-2,5-dimethylphenyl}-N-ethyl-N-methylimidoformamide]
logP (logP (acidic, pH 2.3); pH 2.3): 2.74 | pest or weed control at 500 ppm [1]: ≥ 70%

CCN(C)C=Nc1cc(C)c(Oc2cccc(C[Si](C)(C)C)c2)cc1C [Compound 63, N′-(2,5-dimethyl-4-{3-[(trimethylsilyl)methyl]-phenoxy}phenyl)-N-ethyl-N-methylimido-formamide]
logP (logP (acidic, pH 2.3); pH 2.3): 2.93 | pest or weed control at 500 ppm [1]: ≥ 70%

CCN(C)C=Nc1cc(C)c(Oc2cccc(C3CC3)c2)cc1C [Compound 64, N′-[4-(3-cyclopropylphenoxy)-2,5-dimethylphenyl]-N-ethyl-N-methylimido-formamide]
logP (logP (acidic, pH 2.3); pH 2.3): 2.35 | pest or weed control at 500 ppm [1]: ≥ 70%

CCCN(C)C=Nc1cc(C)c(Oc2cccc(C(C)(C)OC)c2)cc1C [Compound 65-1, N′-{4-[3-(1-methoxy-1-methylethyl)-phenoxy]-2,5-dimethylphenyl}-N-methyl-N-propyl imidoformamide]
logP acidic (logP (acidic, pH 2.3); acidic): 2.50

COC(C)(C)c1cccc(Oc2cc(C)c(/N=C/N3CC(C)OC(C)C3)cc2C)c1 (stereo not shown) [Compound 65-2, N-[(1E)-(2,6-dimethyl-morpholin-4-yl)methylene]-4-[3-(1-methoxy-1-methylethyl)phenoxy]-2,5-dimethylaniline]
logP (logP (acidic, pH 2.3); pH 2.3): 2.24
